According to patent publication US4185119A, “Antiallergic methods” (priority 1977, dated 1980):
Where a name gives a salt, the structure may show the parent alone.

Legend:
[1] = system: P.C.A. reaction in I.C.R. strain mice; assay: Inhibition test of P.C.A. reaction in I.C.R. strain mice, rat hyperimmune antiserum against egg albumin; assay type: in vivo; conditions: I.C.R. mouse (Table 3-I)
Experimental: (c) Inhibition test of P.C.A. reaction in I.C.R. (Institute of Cancer Research) strain mice
(i) Test compound: N-methyllaurotetanine hydrochloride
Fifteen male I.C.R. strain mice aged 7 weeks, weighing about 35 g were divided equally into 3 groups. Each of the groups was composed of 5 mice, (in case of intraperioneal administration of the test compound to the mouse, each of the groups was composed of […]).
Ten-hold diluted solution (0.05 ml.) of the rat hyperimmune antiserum against egg albumin was given intracutaneously to the depilated back of each mouse of Group I and Group II, respectively. On the other hand, a rat normal serum (0.05 ml.) was given intracutaneously to the depilated back of each mouse of Group III. Three hours after the administration, a normal saline (0.1 ml.) containing egg albumin (1.5 mg.) and Evans blue (0.5 mg.) was given intravenously to each mouse of Groups I-III in order to bring about P.C.A., respectively.
Beforehand, 3 hours and 1 hours before the admnistration to bring about P.C.A., a normal saline (0.3 ml.) containing the prescribed amount of N-methyllaurotetanine hydrochloride and carboxymethylcellulose (0.5%) was given orally or intraperitoneally to each mouse of Group I, and a normal saline (0.3 ml.) containing only carboxymethylcellulose (0.5%) was given orally or intraperitoneally to each mouse of Group II.
The procedure followed by the above, was carried out in substantially the same manner as described in the above item (2)-(a). […]

[2] = system: P.C.A. reaction in Donryu strain rats; assay: Inhibition of P.C.A. reaction in Donryu strain rats, rat reaginic antiserum against egg albumin; assay type: in vivo; conditions: Donryu rat (Table 2-I)
Experimental: (a) Rat reaginic antiserum against egg albumin
A solution of egg albumin (2 mg) in B. pertussis-diphtheria-tetanus mixed vaccine (1 ml.) (made by Takeda Chemical Industries Ltd.) was mixed with an equal volume of incomplete adjuvant (made by Difco Laboratories) to give an emulsion. The emulsion was given subcutaneously in a single dose of 1 ml. divided equally (0.25 ml.) to the four foot pads of male S.D. (Sprague-Dawley) strain rats aged 8 weeks, each weighing about 300 g.
Five days after the administration, a solution of egg albumin (0.5 mg.) in B. pertussis-diphtheria-tetanus mixed vaccine (0.5 ml.) was further given intramuscularly in a single dose of 0.5 ml. divided equally (0.25 ml.) to 2 places of thigh of the same rats.
Three days after the second administration, blood samples were collected from femoral artery of the rats and allowed to stand at ambient temperature for 5 hours. The separated supernatant was centrifuged at 4° C. (10,000 r.p.m.× 1 hour). The antisera thus obtained were stored at -80° C. prior to use.
(§1) (b) Inhibitory effect on P.C.A. reaction in Donryu strain rat
(§2) The following tests were carried out in substantially the same manner as described in the above item (2)-(a).
(§3) (i) Test compound: N:methyllaurotetanine hydrochloride
(§4) Test animal: Male Donryu strain rats aged 8 weeks, weighing about 130 g.
(§5) Challenge: A normal saline (0.3 ml.) containing egg albumin (4.5 mg.) and Evans blue (1.5 mg.).
(§6) (ii) Test commpound: glaucine or boldine
(§7) Test animal: Male Donryu strain rats aged 8 weeks, weighing 140-150 g.
(§8) Challenge: the same as the above item (b)-(i).

[3] = system: P.C.A. reaction in Donryu strain rats; assay: Inhibition of P.C.A. reaction in Donryu strain rats, rat hyperimmune antiserum against egg albumin; assay type: in vivo; conditions: Donryu rat (Table 2-I)
Experimental: (b) Rat hyperimmune antiserum against egg albumin
A solution of egg albumin (20 mg.) in normal saline (1 ml.) was mixed with complete adjuvant (1 ml.) (made by Difco Laboratories) to given an emulsion. The emulsion was subcutaneously given in a single dose of 1 ml. divided equally (0.25 ml.) to the four pads of male S.D. strain rats aged 6 weeks, each weighing about 200 g. (The first immunization).
One week after the administration, an emulsion which was prepared by mixing a solution of egg albumin (10 mg.) in normal saline (1 ml.) with complete adjuvant (1 ml.) was further given subcutaneously (at 3 places) and intramuscularly (at 1 place) in a single dose of 1 ml. divided equally (0.25 ml.) to thigh of the same rats. (The second immunization).
Three weeks after the second administration, a solution of egg albumin (1 mg.) in normal saline (1 ml.) was further given intracutaneously in a single dose of 0.3 ml. divided equally (0.1 ml.) to 3 places of the same rats. (The third immunization).
One week after the third administration, blood samples were collected from rats and treated in substantially the same manner as described in the above item (a). The antisera thus obtained were stored at -80° C. prior to use.
Further, an inhibition test on P.C.A. reaction using the rat hyperimmuneantiserum against egg albumin was carried out in substantially the same manner as described in the above, excepting that the intravenous administration to bring about P.C.A. was carried out at 5.5 hours after the administration of the serum and antiserum. And inhibitory effect on the P.C.A. reaction was also calculated in substantially the same manner as described in the above.
as §1, §2, §3, §4, §5, §6, §7, §8

[4] = Acute toxicity in mice; conditions: mouse, in vivo, ip; intraperitoneal, male I.C.R. mice, survivals at one week
Experimental: Test: Acute Toxicity in Mice
A normal saline containing each of the test compound mentioned below and 0.5% carboxymethylcellulose was given intraperitoneally to male I.C.R. (Institute of Cancer Research) strain mice aged 5 weeks, weighing 33-35 g. LD50 values were calculated from the survivals of mice at one week after the administration of the test compound.

COc1cc2c(cc1O)CC1c3c(cc(OC)c(OC)c3-2)CCN1C (centres unmarked) [N-Methyllaurotetanine hydrochloride]
Inhibitory effect on P.C.A. reaction ([1]; intraperitoneal, 3 mg/kg): 50% | Inhibitory effect on P.C.A. reaction ([1]; intraperitoneal, 10 mg/kg): 80% | Inhibitory effect on P.C.A. reaction ([1]; intraperitoneal, 30 mg/kg): 95% | Inhibitory effect on P.C.A. reaction ([1]; oral, 16 mg/kg): 20% | Inhibitory effect on P.C.A. reaction ([1]; oral, 48 mg/kg): 50% | Inhibitory effect on P.C.A. reaction ([1]; oral, 145 mg/kg): 70% | Inhibitory effect on P.C.A. reaction ([2]; intraperitoneal, 4 mg/kg): 30% | Inhibitory effect on P.C.A. reaction ([2]; intraperitoneal, 13 mg/kg): 60% | Inhibitory effect on P.C.A. reaction ([2]; intraperitoneal, 40 mg/kg): 70% | Inhibitory effect on P.C.A. reaction ([2]; intravenous, 6.7 mg/kg): 70% | Inhibitory effect on P.C.A. reaction ([2]; intravenous, 20 mg/kg): 100% | Inhibitory effect on P.C.A. reaction ([2]; oral, 20 mg/kg): 40% | Inhibitory effect on P.C.A. reaction ([2]; oral, 66 mg/kg): 70% | Inhibitory effect on P.C.A. reaction ([2]; oral, 200 mg/kg): 90% | Inhibitory effect on P.C.A. reaction ([3]; intraperitoneal, 4 mg/kg): 10% | Inhibitory effect on P.C.A. reaction ([3]; intraperitoneal, 13 mg/kg): 55% | Inhibitory effect on P.C.A. reaction ([3]; intraperitoneal, 40 mg/kg): 50% | Inhibitory effect on P.C.A. reaction ([3]; intravenous, 6.7 mg/kg): 50% | Inhibitory effect on P.C.A. reaction ([3]; intravenous, 20 mg/kg): 80% | Inhibitory effect on P.C.A. reaction ([3]; oral, 20 mg/kg): 30% | Inhibitory effect on P.C.A. reaction ([3]; oral, 66 mg/kg): 40% | Inhibitory effect on P.C.A. reaction ([3]; oral, 200 mg/kg): 65% | LD50 at 168 h [4]: 91.7 mg/kg
